Results on 24 molecules are retold here after ChEMBL document CHEMBL3769379, “SAR Studies of 5-Aminopyrazole-4-carboxamide Analogues as Potent and Selective Inhibitors of Toxoplasma gondii CDPK1” (ACS Med Chem Lett, 2015).

A short description of data set [1]: Cytotoxicity against human CRL8155 cells after 48 hrs by Alamar Blue assay. It is filed as cell-based. The note with it: crl8155, 48 h.
Data set [2] deals with T1, Calmodulin-domain protein kinase 1 (Toxoplasma gondii, UniProt Q9BJF5).
T1 sequence (Q9BJF5 whole entry): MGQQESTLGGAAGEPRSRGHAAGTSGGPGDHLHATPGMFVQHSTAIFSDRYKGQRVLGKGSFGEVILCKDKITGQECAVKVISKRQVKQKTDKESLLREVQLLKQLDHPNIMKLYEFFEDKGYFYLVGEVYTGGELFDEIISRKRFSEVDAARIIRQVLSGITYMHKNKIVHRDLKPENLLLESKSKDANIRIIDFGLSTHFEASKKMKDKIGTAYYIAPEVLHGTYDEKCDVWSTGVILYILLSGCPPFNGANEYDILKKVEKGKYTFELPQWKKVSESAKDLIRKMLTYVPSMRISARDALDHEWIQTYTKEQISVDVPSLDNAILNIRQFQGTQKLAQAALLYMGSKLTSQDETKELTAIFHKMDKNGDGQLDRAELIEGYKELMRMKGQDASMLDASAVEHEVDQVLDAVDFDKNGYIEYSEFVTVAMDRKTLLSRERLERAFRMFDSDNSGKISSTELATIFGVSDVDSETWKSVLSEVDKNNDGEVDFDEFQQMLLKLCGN

A short description of data set [3]: Solubility of the compound in PBS incubated overnight at pH 6.5 by HPLC-UV analysis. Format: physicochemical. The settings on record: buffer.
Data set [4] can be described thus: Ratio of drug level in brain to plasma in mouse at 5 mg/kg, ip by LC/MS analysis. Format: ADME, organism-based.
Data set [5] has as its system Toxoplasma gondii. In words: Antiprotozoan activity against Toxoplasma gondii RH infected in CF-1 mouse assessed as reduction of parasite burden in brain at 20 to 50 mg/kg, po qd administered for 5 days measured 24 hrs post last dose by quantitative RT-PCR analysis relative to control. It is filed as functional.
Data set [6] concerns Mus musculus. As to the kind of experiment: Toxicity in CF-1 mouse infected with Toxoplasma gondii RH assessed as weight loss at 20 to 50 mg/kg, po qd administered for 5 days. It is filed as organism-based. The note with it: in vivo, 120 h.
In data set [7] the test system is Mus musculus. In words: Toxicity in CF-1 mouse infected with Toxoplasma gondii RH assessed as altered grooming at 20 to 50 mg/kg, po qd administered for 5 days. It is filed as organism-based. The settings on record: in vivo, 120 h.
Data set [8] deals with Mus musculus. As to the kind of experiment: Toxicity in CF-1 mouse infected with Toxoplasma gondii RH assessed as mortality at 50 mg/kg, po qd administered for 5 days measured on day 5. It is filed as organism-based. The settings on record: in vivo, 120 h.
Data set [9] relates to Toxoplasma gondii. As to the kind of experiment: Antiprotozoan activity against Toxoplasma gondii infected in fibroblasts assessed as growth inhibition at low concentration after 2 days by beta-galactosidase reporter assay. It is filed as functional, organism-based. (A reporter such as luciferase makes a cellular process visible.)
Data set [10] has as its system Toxoplasma gondii. As to the kind of experiment: Antiprotozoan activity against Toxoplasma gondii overexpressing wild type CDPK1 infected in fibroblasts assessed as growth inhibition at low concentration after 2 days by beta-galactosidase reporter assay. Format: functional, organism-based.
Data set [11] deals with Mus musculus. In words: Toxicity in CF-1 mouse infected with Toxoplasma gondii RH assessed as lethargy at 20 mg/kg, po qd administered for 5 days. It is filed as organism-based. The settings on record: in vivo, 120 h.
The conditions of data set [12]: human, plasma, 4 h.
Description: Fraction unbound in human plasma after 4 hrs by LC/MS analysis
The target of data set [13] is Proto-oncogene tyrosine-protein kinase Src (Homo sapiens, UniProt P12931).
Proto-oncogene tyrosine-protein kinase Src, sequence (P12931 2-536 limits assumed): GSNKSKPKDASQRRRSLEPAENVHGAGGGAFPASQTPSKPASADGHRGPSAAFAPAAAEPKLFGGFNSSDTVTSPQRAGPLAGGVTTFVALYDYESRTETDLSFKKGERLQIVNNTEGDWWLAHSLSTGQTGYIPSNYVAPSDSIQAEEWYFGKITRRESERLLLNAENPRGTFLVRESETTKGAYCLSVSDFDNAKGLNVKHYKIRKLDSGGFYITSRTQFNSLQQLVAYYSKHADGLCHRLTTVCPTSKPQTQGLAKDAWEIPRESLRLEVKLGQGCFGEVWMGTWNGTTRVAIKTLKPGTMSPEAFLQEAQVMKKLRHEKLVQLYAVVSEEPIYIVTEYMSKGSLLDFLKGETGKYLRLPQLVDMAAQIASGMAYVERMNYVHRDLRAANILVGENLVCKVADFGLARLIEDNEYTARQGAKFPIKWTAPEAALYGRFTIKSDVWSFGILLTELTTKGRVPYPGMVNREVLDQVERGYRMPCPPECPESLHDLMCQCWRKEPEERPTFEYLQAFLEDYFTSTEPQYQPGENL
In data set [14] the test system is Toxoplasma gondii. As to the kind of experiment: Antiprotozoan activity against Toxoplasma gondii RH infected in CF-1 mouse assessed as reduction of parasite burden in peritoneal fluid at 5 to 10 mg/kg, po bid administered for 5 days measured 24 hrs post last dose by hemocytometer-based fluorescence microscopy. It is filed as functional, organism-based.
Data set [15] relates to Mus musculus. As to the kind of experiment: Toxicity in CF-1 mouse infected with Toxoplasma gondii RH assessed as weight loss at 5 to 40 mg/kg, po bid administered for 5 days. It is filed as organism-based. The settings on record: in vivo, 120 h.
The subject of data set [16] is Mus musculus. As to the kind of experiment: Toxicity in CF-1 mouse infected with Toxoplasma gondii RH assessed as altered grooming at 5 to 40 mg/kg, po bid administered for 5 days. Format: organism-based. The settings on record: in vivo, 120 h.
For data set [17], the system named is Mus musculus. As to the kind of experiment: Toxicity in CF-1 mouse infected with Toxoplasma gondii RH assessed as lethargy at 5 to 40 mg/kg, po bid administered for 5 days. Format: organism-based. The note with it: in vivo, 120 h.
Data set [18] concerns Toxoplasma gondii. As to the kind of experiment: Antiprotozoan activity against Toxoplasma gondii RH infected in CF-1 mouse assessed as reduction of parasite burden in peritoneal fluid at 20 to 40 mg/kg, po bid administered for 5 days measured 24 hrs post last dose by hemocytometer-based fluorescence microscopy relative to control. Format: functional.
In data set [19] the test system is Mus musculus. As to the kind of experiment: Toxicity in CF-1 mouse infected with Toxoplasma gondii RH assessed as lethargy at 20 to 50 mg/kg, po qd administered for 5 days. It is filed as organism-based. The settings on record: in vivo, 120 h.

Active and inactive are the calls of the source. The rule behind the calls is not given here. Some results are limits rather than exact numbers.

Molecule `CCOc1ccc2cc(-c3nn(C4CCCCCC4)c(N)c3C(N)=O)cnc2c1` came in with an Activity in data set [1] of more than 40 µM.

In turn, `CCOc1ccc2cc(-c3nn(C(C)CO)c(N)c3C(N)=O)cnc2c1` (centres undefined) yielded an IC50 in data set [2] of 26 nM. In other words, the double-digit nanomolar range.

`CC(C)(C)n1nc(-c2ccc3nc(OC4CCC4)ccc3c2)c(C(N)=O)c1N` displayed an Activity in data set [1] of more than 40 µM. Also, the IC50 in [2] is 12 nM.

`CCOc1ccc2cc(-c3nn(CC(C)(C)CO)c(N)c3C(N)=O)ccc2n1`: the Activity in [1] was more than 40 µM. In addition, the solubility result in data set [3] was “soluble”.

Molecule `CC(C)(C)n1nc(-c2cnc3cc(OC(F)(F)F)ccc3c2)c(C(N)=O)c1N` returned an IC50 in [2] of 39 nM. This counts as double-digit nanomolar.

For the molecule `CCCOc1ccc2cc(-c3nn(C(C)(C)C)c(N)c3C(N)=O)cnc2c1`, in data set [1], the Activity is more than 40 µM.

Consider `CC(C)(C)n1nc(-c2ccc3nc(OC4CC4)ccc3c2)c(C(N)=O)c1N`, for which the Activity is more than 40 µM in [1]; “Non-toxic” in the data set with Mus musculus [6]; “Non-toxic” in the data set with Mus musculus [7]; “Toxic” in the data set on Mus musculus [8]; “Non-toxic” in the data set on Mus musculus [11]. For the same molecule, the BPR in data set [4] turned out to be 43%. The “fold change (FC)” value in the data set with Toxoplasma gondii [5] was more than 5. Moreover, the “growth inhibition (GI)” value in the data set with Toxoplasma gondii [9] and with Toxoplasma gondii [10] was “inactive” each time. Besides, the IC50 in data set [2] worked out at 4.6 nM. The molecule also displayed a Fu in [12] of 88%.

Turning to `CCOc1ccc2cc(-c3nn(C4CCCCC4)c(N)c3C(N)=O)ccc2n1`, in data set [1], the Activity is more than 40 µM. Also, the IC50 in [2] is 5.5 nM.

`CC(C)Oc1ccc2cc(-c3nn(C(C)(C)C)c(N)c3C(N)=O)cnc2c1` displayed an Activity in data set [1] of more than 40 µM. Further, inhibition in [2] was half-maximal at 16 nM (IC50).

In data set [1], `CCOc1ccc2cc(-c3nn(C4CCCC4)c(N)c3C(N)=O)cnc2c1` showed an Activity of more than 40 µM.

Take `CC(C)(C)n1nc(-c2cnc3cc(OCC4CC4)ccc3c2)c(C(N)=O)c1N`: the IC50 in [13] is more than 10000 nM. This molecule also registered an Activity in data set [1] of more than 40 µM.

Regarding `CCOc1ccc2cc(-c3nn(C(C)(C)C)c(N)c3C(N)=O)ccc2n1`, in [1], the Activity is more than 40 µM.

As for `CCOc1ccc2cc(-c3nn(C4CCC4)c(N)c3C(N)=O)cnc2c1`, in data set [1], the Activity was more than 40 µM.

On to `CCOc1ccc2cc(-c3nn(CC4CC4)c(N)c3C(N)=O)ccc2n1`, for which the Activity in [1] is more than 40 µM. For the same molecule, in [2], the IC50 is 7.9 nM.

On to `COc1ccc2cc(-c3nn(C(C)(C)C)c(N)c3C(N)=O)cnc2c1`, for which, in data set [1], the Activity was more than 40 µM.

As for `CCOc1ccc2cc(-c3nn(CC(C)(C)O)c(N)c3C(N)=O)cnc2c1`, half-maximal inhibition in data set [2] (IC50) required 113 nM.

`CCOc1ccc2cc(-c3nn(C(C)C)c(N)c3C(N)=O)ccc2n1` displayed an Activity in [1] of more than 40 µM. In data set [2], this molecule showed an IC50 of 6.5 nM.

As to `CCOc1ccc2cc(-c3nn(C(C)(C)C)c(N)c3C(N)=O)cnc2c1`, the solubility entry in [3] is reported as “Insoluble”. For the same molecule, the BPR in [4] was determined as 15.8%. Also, the outcome with Toxoplasma gondii [14] was Active. In addition, the Activity result with Mus musculus [15], in the data set with Mus musculus [16] and in the data set with Mus musculus [17] was “Non-toxic” in each case. The “fold change (FC)” value with Toxoplasma gondii [18] is more than 10. In [12], this molecule yielded a Fu of 57%.

`CC(C)(C)n1nc(-c2cnc3cc(OC4CC4)ccc3c2)c(C(N)=O)c1N`: the Activity in [1] is more than 40 µM; with Mus musculus [6], “Non-toxic”; in the data set on Mus musculus [7], “Non-toxic”; in the data set with Mus musculus [19] it was “Non-toxic”. In addition, the solubility entry in data set [3] is given as “soluble”. Besides, in data set [4], the BPR stood at 16%. Moreover, the “growth inhibition (GI)” value in the data set with Toxoplasma gondii [9] and in the data set with Toxoplasma gondii [10] was “inactive” each time.

With `CCOc1ccc2cc(-c3nn(CC4CC4)c(N)c3C(N)=O)cnc2c1`, the Activity in [1] is more than 40 µM. The IC50 in data set [2] was determined as 15 nM.

In data set [2], `CCOc1ccc2cc(-c3nn(C4CCCCCC4)c(N)c3C(N)=O)ccc2n1` yielded an IC50 of 17 nM.

Consider `CC(C)(C)n1nc(-c2cnc3cc(OC4CCC4)ccc3c2)c(C(N)=O)c1N`, for which, in [1], the Activity was more than 40 µM. Moreover, the solubility entry in [3] is listed as “Insoluble”. In [2], this molecule registered an IC50 of 7 nM.

In turn, `CCOc1ccc2cc(-c3nn(CC(C)(C)CO)c(N)c3C(N)=O)cnc2c1` gave an IC50 in data set [13] of more than 10000 nM. In addition, in [1], the Activity is more than 40 µM.

In data set [1], `CC(C)(C)n1nc(-c2cnc3cc(F)ccc3c2)c(C(N)=O)c1N` returned an Activity of more than 40 µM.

The IC50 is the concentration that inhibits the measured activity by half.
